Here are results for 22 compounds from paper PMC13266999, “Designing Antibiotics with Inherent Resistance to Efflux as a Strategy to Revive Discovery against Multidrug-Resistant Pathogens” (Journal of Medicinal Chemistry, 2026).

≈ marks a conversion by molar mass, not a printed value. Read-outs that look alike come from different tables or passages of the source.

The experiment concerns S. aureus. The experiment can be described thus: MIC (microbroth dilution). It counts as cell-based, Staphylococcus aureus. The following applies: for MIC: Staphylococcus aureus. The method, then: All bacteria were maintained on tryptic soy agar (TSA), except Streptococcus spp., which were maintained on Columbia agar plates containing 5% horse blood. […] Bacteria were grown to stationary phase in liquid culture overnight, with shaking at 200 rpm, before being back diluted to the relevant starting concentration for each assay below. MICs were measured by the microbroth dilution method. […] Absorbance at OD600 was read on a CLARIOstar spectrophotometer (BMG Labtech) and the MIC was defined as the minimum concentration of compound where no visible growth was detected. […] MICs were also performed in the presence of the outer membrane permeator, polymyxin b nonapeptide (PMBN) following the same MIC method but with the following variation. The 2-fold dilution series of compound was prepared as above, then 50 μL of PMBN at a final concentration of 30 μg/mL was added to relevant wells, while 50 μL/well of blank media was added to the remaining wells. Bacteria were then added at 50 μL/well for a starting concentration as above. […] The MICs were read and defined as above. All animal procedures were performed by the contract research organization Pharmacology Discovery Services Taiwan in accordance with the Guide for the Care and Use of Laboratory Animals. The procedures were approved by the Institutional Ethics Committee of Pharmacology Discovery Services Taiwan, Ltd. (approval no. AB127662), in compliance with animal welfare legislation in Taiwan.
On the technique in general: Dilution methods test growth across graded concentrations, often in twofold steps.

Where [1] appears, read: ATCC9144, ATCC 9144, read-out: MIC.
[2] abbreviates: NCTC13277, NCTC 13277, read-out: MIC.
The mark [3] stands for this setting: NCTC13616, NCTC 13616, read-out: MIC.

For the compound `O=C(O)c1cn(C2CC2)c2cc(N3CCN(Cc4ccc(F)c5ccccc45)CC3)c(F)cc2c1=O` [Compound 35, 1-Cyclopropyl-6-fluoro-7-(4-((4-fluoronaphthalen-1-yl)methyl)piperazin-1-yl)-4-oxo-1,4-dihydroquinoline-3-carboxylic acid], the MIC by setting is: under setting [1], 4 µg/mL (≈ 8.17 µM); under setting [2], 8 µg/mL (≈ 16.3 µM); under setting [3], 4 µg/mL (≈ 8.17 µM).
For the compound `CCn1cc(C(=O)O)c(=O)c2cc(F)c(N3CCN(Cc4ccccc4)CC3)cc21` [Compound 26, 7-(4-Benzylpiperazin-1-yl)-1-ethyl-6-fluoro-4-oxo-1,4-dihydroquinoline-3-carboxylic acid], the MIC under setting [1] turned out to be 0.25 µg/mL (≈ 0.611 µM), the MIC under setting [2] fell in the range of 16 to 32 µg/mL (≈ 39.1 to 78.2 µM) and the MIC under setting [3] is 16 µg/mL (≈ 39.1 µM).
For the compound `C[C@H]1COc2c(N3CC[C@@H](N)C3)c(F)cc3c(=O)c(C(=O)O)cn1c23` [Compound 45, (S)-10-((R)-3-Aminopyrrolidin-1-yl)-9-fluoro-3-methyl-7-oxo-2,3-dihydro-7H-[1,4]oxazino[2,3,4-ij]quinoline-6-carboxylic acid], the “fold loss of activity compared to 46” value is listed as 32- to 64 fold. The minimum inhibitory concentration (MIC) under setting [1] stood at 0.25 µg/mL (≈ 0.72 µM). For the same compound, the MIC under setting [2] turned out to be 32 µg/mL (≈ 92.1 µM). Moreover, the MIC under setting [3] is 32 µg/mL (≈ 92.1 µM).
As for `c1ccc2c(CN3CCNCC3)cccc2c1` [NMP, 1-(naphthalen-1-ylmethyl)piperazine, reference compound], under “fluoroquinolone-resistant S. aureus strains”, the “fold improvement over ciprofloxacin alone” value was 2 fold.
Turning to `CCn1cc(C(=O)O)c(=O)c2cc(F)c(N3CCNCC3)nc21` [Compound 3, enoxacin, reference compound], the MIC is 2 µg/mL (≈ 6.24 µM) under setting [1], 128 µg/mL (≈ 400 µM) under setting [2] and above 128 µg/mL under setting [3].
For `CCn1cc(C(=O)O)c(=O)c2cc(F)c(N3CCN(Cc4cccc5c4CCCC5)CC3)cc21` [Compound 30, 1-Ethyl-6-fluoro-4-oxo-7-(4-((5,6,7,8-tetrahydronaphthalen-1-yl)methyl)piperazin-1-yl)-1,4-dihydroquinoline-3-carboxylic acid], the MIC under setting [1] turned out to be 1 µg/mL (≈ 2.16 µM); the MIC under setting [2] amounted to 2 µg/mL (≈ 4.31 µM); the MIC under setting [3] stood at 2 µg/mL (≈ 4.31 µM); the MIC (SA-1199, read-out: MIC) is 0.25 µg/mL (≈ 0.539 µM); the MIC (SA-1199B (NorA-overexpressing)) was 0.5 µg/mL (≈ 1.08 µM).
`CCn1cc(C(=O)O)c(=O)c2cc(F)c(N3CCN(Cc4cccc5cccnc45)CC3)cc21` [Compound 28, 1-Ethyl-6-fluoro-4-oxo-7-(4-(quinolin-8-ylmethyl)piperazin-1-yl)-1,4-dihydroquinoline-3-carboxylic acid]: the MIC reads like this: under setting [1], 1 µg/mL (≈ 2.17 µM); under setting [2], 128 µg/mL (≈ 278 µM); under setting [3], 128 µg/mL (≈ 278 µM).
Take `CCn1cc(C(=O)O)c(=O)c2cc(F)c(N3CCNCC3)cc21` [Compound 2, norfloxacin, reference compound]: the MIC is 2 µg/mL (≈ 6.26 µM) under setting [1], above 128 µg/mL under setting [2] and above 128 µg/mL under setting [3].
On to `O=C(O)c1cn(C2CC2)c2cc(N3CCN(Cc4ccc5ccccc5c4)CC3)c(F)cc2c1=O` [Compound 23, 1-Cyclopropyl-6-fluoro-7-(4-(naphthalen-2-ylmethyl)piperazin-1-yl)-4-oxo-1,4-dihydroquinoline-3-carboxylic acid], for which the MIC stood at 0.125 µg/mL (≈ 0.265 µM) under setting [1], 2 µg/mL (≈ 4.24 µM) under setting [2] and 2 µg/mL (≈ 4.24 µM) under setting [3].
For the compound `CN(C)c1ccc(CN2CCN(c3cc4c(cc3F)c(=O)c(C(=O)O)cn4C3CC3)CC2)cc1` [Compound 31, 1-Cyclopropyl-7-(4-(4-(dimethylamino)benzyl)piperazin-1-yl)-6-fluoro-4-oxo-1,4-dihydroquinoline-3-carboxylic acid], the MIC runs as follows: under setting [1], 0.06 to 0.125 µg/mL (≈ 0.129 to 0.269 µM); under setting [2], 16 to 32 µg/mL (≈ 34.4 to 68.9 µM); under setting [3], 8 to 16 µg/mL (≈ 17.2 to 34.4 µM); (SA-1199, read-out: MIC) 0.125 µg/mL (≈ 0.269 µM); (SA-1199B (NorA-overexpressing)) 0.25 µg/mL (≈ 0.538 µM).
In the case of `O=C(O)c1cn(C2CC2)c2cc(N3CCN(Cc4ccc(-c5ccccc5)cc4)CC3)c(F)cc2c1=O` [Compound 39, 7-(4-([1,1’-Biphenyl]-4-ylmethyl)piperazin-1-yl)-1-cyclopropyl-6-fluoro-4-oxo-1,4-dihydroquinoline-3-carboxylic acid], the MIC runs as follows: under setting [1], 1 µg/mL (≈ 2.01 µM); under setting [2], 2 µg/mL (≈ 4.02 µM); under setting [3], 2 µg/mL (≈ 4.02 µM).
With `O=C(O)c1cn(C2CC2)c2cc(N3CCN(Cc4cccc5cccnc45)CC3)c(F)cc2c1=O` [Compound 27, 1-Cyclopropyl-6-fluoro-4-oxo-7-(4-(quinolin-8-ylmethyl)piperazin-1-yl)-1,4-dihydroquinoline-3-carboxylic acid], the MIC reads like this: under setting [1], 0.5 µg/mL (≈ 1.06 µM); under setting [2], 128 µg/mL (≈ 271 µM); under setting [3], 64 µg/mL (≈ 135 µM); (SA-1199, read-out: MIC) 0.125 µg/mL (≈ 0.265 µM); (SA-1199B (NorA-overexpressing)) 0.25 µg/mL (≈ 0.529 µM).
As to `O=C(O)c1cn(C2CC2)c2cc(N3CCN(Cc4cccc5ccsc45)CC3)c(F)cc2c1=O` [Compound 37, 7-(4-(Benzo[b]thiophen-7-ylmethyl)piperazin-1-yl)-1-cyclopropyl-6-fluoro-4-oxo-1,4-dihydroquinoline-3-carboxylic acid], the MIC under setting [1] was below 0.125 µg/mL, the MIC under setting [2] was determined as 2 µg/mL (≈ 4.19 µM) and the MIC under setting [3] came to 2 µg/mL (≈ 4.19 µM).
`C[C@H]1COc2c(N3CC[C@@H](Nc4ncc(F)cn4)C3)c(F)cc3c(=O)c(C(=O)O)cn1c23` [Compound 47, (S)-9-Fluoro-10-((R)-3-((5-fluoropyrimidin-2-yl)amino)pyrrolidin-1-yl)-3-methyl-7-oxo-2,3-dihydro-7H-[1,4]oxazino[2,3,4-ij]quinoline-6-carboxylic acid]: the MIC was at most 0.125 µg/mL under setting [1], 1 µg/mL (≈ 2.26 µM) under setting [2] and 0.5 µg/mL (≈ 1.13 µM) under setting [3].
In the same order, the values of `CCn1cc(C(=O)O)c(=O)c2cc(F)c(N3CCN(Cc4ccc(-c5ccccc5)cc4)CC3)cc21` [Compound 40, 7-(4-([1,1’-Biphenyl]-4-ylmethyl)piperazin-1-yl)-1-ethyl-6-fluoro-4-oxo-1,4-dihydroquinoline-3-carboxylic acid] are 2 µg/mL (≈ 4.12 µM), 4 µg/mL (≈ 8.24 µM) and 2 µg/mL (≈ 4.12 µM).
As for `CCn1cc(C(=O)O)c(=O)c2cc(F)c(N3CCN(Cc4ccc(N(C)C)cc4)CC3)cc21` [Compound 32, 7-(4-(4-(Dimethylamino)benzyl)piperazin-1-yl)-1-ethyl-6-fluoro-4-oxo-1,4-dihydroquinoline-3-carboxylic acid], the MIC is 0.125 to 0.25 µg/mL (≈ 0.276 to 0.552 µM) under setting [1], above 32 µg/mL under setting [2] and 16 to 32 µg/mL (≈ 35.4 to 70.7 µM) under setting [3].
Take `C[C@H]1COc2c(N3CCN(Cc4cccc5ccccc45)CC3)c(F)cc3c(=O)c(C(=O)O)cn1c23` [Compound 22, (S)-9-Fluoro-3-methyl-10-(4-(naphthalen-1-ylmethyl)piperazin-1-yl)-7-oxo-2,3-dihydro-7H-[1,4]oxazino[2,3,4-ij]quinoline-6-carboxylic acid]: the MIC was 0.125 to 1 µg/mL (≈ 0.256 to 2.05 µM) under setting [1]; 2 to 4 µg/mL (≈ 4.1 to 8.2 µM) under setting [2]; 4 µg/mL (≈ 8.2 µM) under setting [3]; 0.25 µg/mL (≈ 0.513 µM) (SA-1199, read-out: MIC); 0.5 µg/mL (≈ 1.03 µM) (SA-1199B (NorA-overexpressing)).
On to `CCn1cc(C(=O)O)c(=O)c2cc(F)c(N3CCN(Cc4cccc5ccccc45)CC3)cc21` [Compound 20, 1-Ethyl-6-fluoro-7-(4-(naphthalen-1-ylmethyl)piperazin-1-yl)-4-oxo-1,4-dihydroquinoline-3-carboxylic acid], for which the MIC was 1 µg/mL (≈ 2.18 µM) under setting [1], 2 µg/mL (≈ 4.35 µM) under setting [2] and 2 µg/mL (≈ 4.35 µM) under setting [3].
On to `Cc1cc(N[C@@H]2CCN(c3c(F)cc4c(=O)c(C(=O)O)cn5c4c3OC[C@@H]5C)C2)ncn1` [Compound 49, (S)-9-Fluoro-3-methyl-10-((R)-3-((6-methylpyrimidin-4-yl)amino)pyrrolidin-1-yl)-7-oxo-2,3-dihydro-7H-[1,4]oxazino[2,3,4-ij]quinoline-6-carboxylic acid], for which the MIC under setting [1] was 0.016 µg/mL (≈ 0.0364 µM); the MIC under setting [2] was 0.5 µg/mL (≈ 1.14 µM); the minimal inhibitory concentration (MIC) under setting [3] amounted to 0.25 µg/mL (≈ 0.569 µM); the MIC (SA-1199, read-out: MIC) is 0.016 µg/mL (≈ 0.0364 µM); the MIC (SA-1199B (NorA-overexpressing)) turned out to be 0.016 µg/mL (≈ 0.0364 µM).
In the case of `CCn1cc(C(=O)O)c(=O)c2cc(F)c(N3CCN(Cc4ccc5ccccc5c4)CC3)cc21` [Compound 24, 1-Ethyl-6-fluoro-7-(4-(naphthalen-2-ylmethyl)piperazin-1-yl)-4-oxo-1,4-dihydroquinoline-3-carboxylic acid], the minimal inhibitory concentration (MIC) reads like this: under setting [1], 0.25 µg/mL (≈ 0.544 µM); under setting [2], 4 µg/mL (≈ 8.7 µM); under setting [3], 4 µg/mL (≈ 8.7 µM).
As to `CCn1cc(C(=O)O)c(=O)c2cc(F)c(N3CCN(Cc4ccc(F)c5ccccc45)CC3)cc21` [Compound 36, 1-Ethyl-6-fluoro-7-(4-((4-fluoronaphthalen-1-yl)methyl)piperazin-1-yl)-4-oxo-1,4-dihydroquinoline-3-carboxylic acid], the MIC reads like this: under setting [1], 8 µg/mL (≈ 16.8 µM); under setting [2], 8 µg/mL (≈ 16.8 µM); under setting [3], 8 µg/mL (≈ 16.8 µM).
`C[C@H]1COc2c(N3CC[C@@H](Nc4cnccn4)C3)c(F)cc3c(=O)c(C(=O)O)cn1c23` [Compound 48, (S)-9-Fluoro-3-methyl-7-oxo-10-((R)-3-(pyrazin-2-ylamino)pyrrolidin-1-yl)-2,3-dihydro-7H-[1,4]oxazino[2,3,4-ij]quinoline-6-carboxylic acid]: the MIC under setting [1] was at most 0.125 µg/mL; the MIC under setting [2] was found to be 1 µg/mL (≈ 2.35 µM); the MIC under setting [3] came to 1 µg/mL (≈ 2.35 µM); the minimum inhibitory concentration (MIC) (SA-1199, read-out: MIC) stood at 0.03 µg/mL (≈ 0.0705 µM); inhibition of growth (SA-1199B (NorA-overexpressing)) (MIC) required 0.125 µg/mL (≈ 0.294 µM).

A word on the MIC: it is the lowest concentration found to suppress growth.
